Reference: patent EP0003212A1, “2.4-Diamino-5-benzylpyrimidines, pharmaceutical compositions containing them and their preparation” (F. HOFFMANN-LA ROCHE & CO. Aktiengesellschaft, priority 1977, dated 1979)
pIC50: −log10 of the molar value.

System: E. coli 1346
Assay: In vitro antibacterial activity (MIC)
Format: cell-based
Settings: strain E. coli 1346, unit not given

SMILES	Aktivität in vitro (MIC) E. coli 1346
CSc1cc(C)c(Cc2cnc(N)nc2N)cc1SC [R^1=CH3, R^2=H, R^3=SCH3, R^4=SCH3, 2,4-Diamino-5-[2-methyl-4,5-bis-(methylthio)-benzyl]-pyrimidin]	0,7
CCSc1c(OC)cc(Cc2cnc(N)nc2N)cc1OC [R^1=H, R^2=OCH3, R^3=SC2H5, R^4=OCH3, 2,4-Diamino-5-[4-(äthylthio)-3,5-dimethoxybenzyl]-pyrimidin]	0,04
COc1cc(Cc2cnc(N)nc2N)cc(OC)c1SC [R^1=H, R^2=OCH3, R^3=SCH3, R^4=OCH3, 2,4-Diamino-5-[3,5-dimethoxy-4-(methylthio)-benzyl]-pyrimidin]	0,02
COc1c(Br)cc(Cc2cnc(N)nc2N)cc1SC [R^1=H, R^2=SCH3, R^3=OCH3, R^4=Br]	0,2
COc1cc(Cc2cnc(N)nc2N)cc(SC)c1OC [R^1=H, R^2=SCH3, R^3=OCH3, R^4=OCH3]	0,1
COc1c(SC)cc(Cc2cnc(N)nc2N)cc1SC [R^1=H, R^2=SCH3, R^3=OCH3, R^4=SCH3]	0,7
CSc1cc(Cc2cnc(N)nc2N)cc(SC)c1SC [R^1=H, R^2=SCH3, R^3=SCH3, R^4=SCH3]	0,2
CSc1cc(Cc2cnc(N)nc2N)cc(SC)c1-n1cccc1 [R^1=H, R^2=SCH3, R^3=[drawing], R^4=SCH3]	> 1

System: S. aureus Schoch.
Assay: In vitro antibacterial activity (MIC)
Format: cell-based
Settings: strain S. aureus Schoch., unit not given

SMILES	Aktivität in vitro (MIC) S. aureus Schoch.
CSc1cc(C)c(Cc2cnc(N)nc2N)cc1SC [R^1=CH3, R^2=H, R^3=SCH3, R^4=SCH3, 2,4-Diamino-5-[2-methyl-4,5-bis-(methylthio)-benzyl]-pyrimidin]	0,7
CSc1ccc(Cc2cnc(N)nc2N)cc1SC [R^1=H, R^2=H, R^3=SCH3, R^4=SCH3]	0,7
COCCSc1c(OC)cc(Cc2cnc(N)nc2N)cc1OC [R^1=H, R^2=OCH3, R^3=SC2H4OCH3, R^4=OCH3]	1,0
CCSc1c(OC)cc(Cc2cnc(N)nc2N)cc1OC [R^1=H, R^2=OCH3, R^3=SC2H5, R^4=OCH3, 2,4-Diamino-5-[4-(äthylthio)-3,5-dimethoxybenzyl]-pyrimidin]	0,4
COc1cc(Cc2cnc(N)nc2N)cc(OC)c1SC [R^1=H, R^2=OCH3, R^3=SCH3, R^4=OCH3, 2,4-Diamino-5-[3,5-dimethoxy-4-(methylthio)-benzyl]-pyrimidin]	0,4
COc1c(Br)cc(Cc2cnc(N)nc2N)cc1SC [R^1=H, R^2=SCH3, R^3=OCH3, R^4=Br]	1,0
COc1cc(Cc2cnc(N)nc2N)cc(SC)c1OC [R^1=H, R^2=SCH3, R^3=OCH3, R^4=OCH3]	0,78
COc1c(SC)cc(Cc2cnc(N)nc2N)cc1SC [R^1=H, R^2=SCH3, R^3=OCH3, R^4=SCH3]	0,2
CSc1cc(Cc2cnc(N)nc2N)cc(SC)c1SC [R^1=H, R^2=SCH3, R^3=SCH3, R^4=SCH3]	0,2
CSc1cc(Cc2cnc(N)nc2N)cc(SC)c1-n1cccc1 [R^1=H, R^2=SCH3, R^3=[drawing], R^4=SCH3]	4,0

Biological target: bakterielle Dihydrofolsäurereduktase (DHFR) (Escherichia coli, UniProt P0ABQ4)
Assay: 50% inhibition of bacterial dihydrofolate reductase
Format: biochemical, E. coli
Settings: not given
Source text: Die Verbindungen der Formel I und ihre Salze sind antibakteriell wirksam. Sie hemmen die bakterielle Dihydrofolsäurereduktase (DHFR) und potenzieren darüberhinaus die Wirkung von Sulfonamiden und anderen Dihydrofolsäuresynthetasehemmern. Beispiele von Sulfonamiden, die durch die erfindungsgemässen Verbindungen potenziert werden, sind solche der Pyrimidin-, Isoxazol-, Oxazol- und Pyrazinreihe wie Sulfadiazin, Sulfadimethoxin, Sulfadoxin, Sulfamerazin, Sulfameter, Sulfamethazin, 6-Methoxy-4-sulfanilamidopyrimidin, Sulfamethoxazol, Sulfisoxazol, 3-Sulfanilamido-4,5-dimethyl-isoxazol, Sulfamoxol und Sulfalen. Quantitativ zeichnen sich die erfindungsgemässen Verbindungen gegenüber bekannten Verbindungen durch niedrigere 50%ige Hemmkonzentrationen der bakteriellen DHFR, beispielsweise bei E. coli, und durch wesentlich höhere Q-Werte (50%ige Hemmung der DHFR bei Ratte/50%ige Hemmung der DHFR bei E. coli), die ein Mass für die Selektivität der Hemmung der bakteriellen DHFR darstellen, sowie durch geringe Toxizität aus.

SMILES	pIC50
CSc1cc(C)c(Cc2cnc(N)nc2N)cc1SC [R^1=CH3, R^2=H, R^3=SCH3, R^4=SCH3, 2,4-Diamino-5-[2-methyl-4,5-bis-(methylthio)-benzyl]-pyrimidin]	7.82
COc1cc(Cc2cnc(N)nc2N)cc(OC)c1SC [R^1=H, R^2=OCH3, R^3=SCH3, R^4=OCH3, 2,4-Diamino-5-[3,5-dimethoxy-4-(methylthio)-benzyl]-pyrimidin]	8.46

Same assay, conditions: DHFR of E. coli; read-out: 50% Hemmung der DHFR (M x 10^-8) E. coli

SMILES	pIC50
CSc1ccc(Cc2cnc(N)nc2N)cc1SC [R^1=H, R^2=H, R^3=SCH3, R^4=SCH3]	7.80
COCCSc1c(OC)cc(Cc2cnc(N)nc2N)cc1OC [R^1=H, R^2=OCH3, R^3=SC2H4OCH3, R^4=OCH3]	7.01
CCSc1c(OC)cc(Cc2cnc(N)nc2N)cc1OC [R^1=H, R^2=OCH3, R^3=SC2H5, R^4=OCH3, 2,4-Diamino-5-[4-(äthylthio)-3,5-dimethoxybenzyl]-pyrimidin]	8.74
COc1c(Br)cc(Cc2cnc(N)nc2N)cc1SC [R^1=H, R^2=SCH3, R^3=OCH3, R^4=Br]	7.96
COc1cc(Cc2cnc(N)nc2N)cc(SC)c1OC [R^1=H, R^2=SCH3, R^3=OCH3, R^4=OCH3]	8.30
COc1c(SC)cc(Cc2cnc(N)nc2N)cc1SC [R^1=H, R^2=SCH3, R^3=OCH3, R^4=SCH3]	8.14
CSc1cc(Cc2cnc(N)nc2N)cc(SC)c1SC [R^1=H, R^2=SCH3, R^3=SCH3, R^4=SCH3]	8.35
CSc1cc(Cc2cnc(N)nc2N)cc(SC)c1-n1cccc1 [R^1=H, R^2=SCH3, R^3=[drawing], R^4=SCH3]	8.28
